{"source": "patent US20140038896A1", "about": "“Retroelements and mental disorders and methods of measuring L1 retrotransposition” (Salk Institute for Biological Studies, priority 2009, published 2014)", "key": {"[1]": {"system": "endogenous rat L1 promoter region (5′UTR)", "test": "ChIP of MeCP2 and Sox2 on the endogenous rat L1 promoter region in NSCs", "format": "cell-based", "settings": "for MeCP2 ChIP signal / association to the L1 promoter region: 500 ng/ml for 4 days", "from_the_text": "ChIP assay was done essentially following the manufacturer's protocol using a ChIP assay kit (Upstate). Antibodies used were anti-MeCP2 (Upstate), Sox2 (Chemicon), and IgG. Purified DNA was amplified by PCR using primers for the rat L1 5′UTR promoter region (L1.3, accession # X03095).\n(§1) Using chromatin immunoprecipitation (ChIP), high levels of MeCP2 were detected in association with the L1 promoter region (i.e., 5′UTR) in rat NSCs compared to differentiated neurons (FIG. 1F). To rule out differences in protein abundance that may differently influence ChIP amplification, western blot analysis was performed using lysates from cells that had undergone neuronal differentiation. […] Next, it was asked if releasing of MeCP2 from the methylated DNA would increase its association with Sox2 in solution. The Co-IP experiment in the presence of the 5-Aza was then repeated. […] It may be that both configurations can occur on the same L1 promoter region or each possibility is a L1 element sequence-dependent event."}, "L1 5′UTR CpG islands": {"system": "L1 5′UTR CpG islands", "test": "Bisulfite analysis of L1 5′UTR DNA methylation in NSCs", "format": "cell-based, rat", "settings": "treatment for 4-days", "protocol": "Genomic DNA from NSCs was isolated using standard phenol-chloroform extraction techniques. Subsequently, DNA was digested with the restriction enzyme EcoRI and the bisulfite conversion reaction was performed using the Epitect kit (Quiagen), following manufacturer's instructions. Primers were designed based on the rat L1 sequence Mlvi2, using Methyl Primer Express; primers for L1 converted 5′UTR region: forward 5-[…]-3′ (SEQ ID NO:1) and reverse 5′-[…]-3′ (SEQ ID NO:2). PCR products were cloned into TOPO TA 2.1 plasmids (Invitrogen) and 40 bacterial colonies were analyzed by sequencing."}, "MeCP2 and Sox2": {"system": "MeCP2 and Sox2", "test": "Co-immunoprecipitation between MeCP2 and Sox2", "format": "cell-based, rat", "settings": "in the presence of 5-Aza", "protocol": "Immunofluorescence for EGFP was performed as previously described (11). A non-transgenic animal was used to measure the background fluorescence in the brain and to establish a threshold for detection. Western blotting was carried out using standard protocols with the following antibodies: mouse anti-Actin (1/500, Ambion), rabbit anti-MeCP2 (1/1000, Imgenex or Upstate), and rabbit anti-Sox2 (1/100, Chemicon). All secondary antibodies were purchased from Jackson ImmunoResearch. For co-immunoprecipitation, the Nuclear Complex Co-IP kit (Active Motif) was used, following the manufacturer's protocol with the highest stringency buffers.\nas §1"}}}
{"compound": "Nc1ncn([C@@H]2O[C@H](CO)[C@@H](O)[C@H]2O)c(=O)n1", "note": "[5-Azacytidine]", "values": [{"measurement": "MeCP2 ChIP signal / association to the L1 promoter region", "setting": "[1]", "result": "lost"}, {"measurement": "MeCP2 ChIP signal / association to the L1 promoter region", "setting": "[1]; listed as 5-Azacitidine", "result": "reduced"}, {"measurement": "Sox2 binding to the L1 promoter", "setting": "[1]; 5-Aza treatment", "result": "did riot prevent"}, {"measurement": "removal of methyl radicals from the 5′UTR L1 region (bisulfite)", "setting": "L1 5′UTR CpG islands", "result": "completely removed"}, {"measurement": "amount of MeCP2 in association with Sox2 in solution (Co-IP)", "setting": "MeCP2 and Sox2", "result": "increased"}]}
